Reference: patent publication US9969687B2, “Compounds useful as CCR9 modulators” (Norgine B.V., priority 2013, dated 2018)
pKi: −log10 of the molar value.

Tests used:
CCR9 [1] = target: T1, CCR9 (Homo sapiens (Human), UniProt P51686); test: FLIPR calcium flux assay using hCCR9 over expressed cells (Chem1-hCCR9), TECK stimulation; assay type: cell-based; conditions: Chem1-hCCR9 overexpressing cells
Method: Biological Activity: FLIPR Assay Using hCCR9 Over Expressed Cells
A calcium flux assay was used to determine the ability of the compounds to interfere with the binding between CCR9 and its chemokine ligand (TECK) in Chem1-hCCR9 overexpressing cells. hCCR9 overexpressing cells were seeded (25,000 cells/well) into black Poly-D-Lysine coated clear bottom 96-well plates (BD Biosciences, Cat #356640) and incubated overnight at 37° C./5% CO2 in a humidified incubator. Media was aspirated and cells washed twice with 100 μL assay buffer (1×HBSS, 20 mM HEPES) containing 2.5 mM Probenecid. A 0.3× Fluo-4 NW calcium dye was prepared in assay buffer containing 5 mM Probenecid and stored in the dark. Each well was loaded with 100 μL of 0.3× Fluo-4 NW calcium dye and incubated at 37° C./5% CO2 for 60 minutes and then at room temperature for 30 minutes. A half-log serially diluted concentration response curve was prepared at a 3× final assay concentration for each compound (10 μM-0.1 nM final assay concentration) and 50 μL of the compound then transferred to the cells (150 μL final volume) for 60 minutes prior to stimulation (30 minutes at 37° C./5% CO2 and 30 minutes at room temperature). TECK was diluted to 4× its EC80 in assay buffer (containing 0.1% [w/v] bovine serum albumin [BSA]) and 50 μL dispensed through the fluorometric imaging plate reader (FLIPR) instrument to stimulate the cells (200 μL final volume). The increase in intracellular calcium levels was measured with the FLIPR instrument. The potency of the compound as a CCR9 antagonist was calculated as an IC50 using GraphPad Prism software (variable slope four parameter). The Ki of the compound was determined from the IC50 values using the following equation. IC50/1+(Agonist (TECK) conc. used in assay/EC50 of agonist (TECK) generated on day of experiment) Ki calculation: […]

CCR9 [2] = target: T1, CCR9; test: FLIPR calcium flux assay using MOLT4 cells, TECK stimulation; assay type: cell-based; conditions: MOLT4 cells (human T-cell line)
Method: Biological Activity: FLIPR Assay Using MOLT4 Cells
A calcium flux assay was used to determine the ability of the compounds to interfere with the binding between CCR9 and its chemokine ligand (TECK) in MOLT4 cells (a human T-cell line). MOLT4 cells were seeded (100,000 cells/well) in corning cell culture plates (Cat #3603) in assay buffer (1×HBSS, 20 mM HEPES) containing 2.5 mM Probenecid. The plate was centrifuged at 1200 rpm for 3 minutes and incubated at 37° C./5% CO2 for 2 hours. A 0.3× Fluo-4 NW calcium dye was prepared in assay buffer containing 5 mM Probenecid and stored in the dark. Each well was loaded with 25 μl of 0.3× Fluo-4 NW calcium dye and incubated at 37° C./5% CO2 for 60 minutes and then at room temperature for 30 minutes. A half-log serially diluted concentration response curve was prepared at a 4× concentration for each (10 μM-0.1 nM final assay concentration) and 25 μL of the compound then transferred to the cells (100 μL final volume) for 60 minutes prior to stimulation (30 minutes at 37° C./5% CO2 and 30 minutes at room temperature). […] The increased in intracellular calcium levels was measured with the FLIPR instrument. The potency of the compound as CCR9 antagonist was calculated as an IC50 using GraphPad Prism software (variable slope four parameter). The Ki of the compound was determined from the IC50 values using the following equation. IC50/1+(Agonist (TECK) conc. used in assay/EC50 of agonist (TECK) generated on day of experiment) Ki calculation: […]

T1 sequence (P51686 whole entry): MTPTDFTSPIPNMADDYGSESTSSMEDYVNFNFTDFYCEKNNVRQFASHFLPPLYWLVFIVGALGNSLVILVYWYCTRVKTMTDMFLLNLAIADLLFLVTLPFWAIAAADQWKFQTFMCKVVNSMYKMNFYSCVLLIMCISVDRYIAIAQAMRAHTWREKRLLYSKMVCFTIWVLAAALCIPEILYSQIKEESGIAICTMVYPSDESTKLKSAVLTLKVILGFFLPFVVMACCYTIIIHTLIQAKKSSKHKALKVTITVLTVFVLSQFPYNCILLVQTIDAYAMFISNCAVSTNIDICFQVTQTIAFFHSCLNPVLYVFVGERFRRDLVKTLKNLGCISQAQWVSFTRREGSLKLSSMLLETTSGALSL

Row | Structure (SMILES) | pKi (CCR9 [1]) | pKi (CCR9 [2])
1 | O=C1c2c(Cl)ccc(NS(=O)(=O)c3ccc(OC(F)(F)F)cc3)c2C(=O)N1c1cccnc1 [Compound 45] | 6.50 | 7.28
2 | CC(C)(C)c1ccc(S(=O)(=O)Nc2ccc(C#N)c3c2C(=O)N(Cc2cccnc2)C3=O)cc1 [Compound 82, 4-(tert-butyl)-N-(7-cyano-1,3-dioxo-2-(pyridin-3-ylmethyl)isoindolin-4-yl)benzenesulfonamide] | 7.01 | 7.72
3 | N#Cc1cccc(CN2C(=O)c3c(Cl)ccc(NS(=O)(=O)c4ccc(C(F)(F)F)cc4)c3C2=O)c1 [Compound 128] | 6.35 | 6.61
4 | CC(C)(C)c1ccc(S(=O)(=O)Nc2ccc(Cl)c3c2C(=O)N(Cc2cncc(C#N)c2)C3=O)cc1 [Compound 195] | 7.38 | 7.51
5 | CC(C)(C)c1ccc(S(=O)(=O)Nc2ccc(Cl)c3c2C(=O)N(Cc2ccccn2)C3=O)cc1 [Compound 191] | 7.48 | 7.70
6 | CC(C)(C)c1ccc(S(=O)(=O)Nc2ccc(Cl)c3c2C(=O)N(Cc2cc[n+]([O-])cc2)C3=O)cc1 [Compound 209] | 7.11 | 7.52
7 | CCOC(=O)c1c(N2C(=O)c3c(Cl)ccc(NS(=O)(=O)c4ccc(C(C)(C)C)cc4)c3C2=O)ccc[n+]1[O-] [Compound 290] | 7.85 | 8.15
8 | Cc1cc(N2C(=O)c3c(Cl)ccc(NS(=O)(=O)c4ccc(C(C)(C)C)cc4)c3C2=O)c(C)[n+]([O-])c1 [Compound 267] | 7.23 | 7.57
9 | COc1nccc(C)c1N1C(=O)c2c(Cl)ccc(NS(=O)(=O)c3ccc(C(C)(C)C)cc3)c2C1=O [Compound 237] | 8.05 | 7.55
10 | CC(C)(C)c1ccc(S(=O)(=O)Nc2ccc(Cl)c3c2C(=O)N(Cc2ccncc2)C3=O)cc1 [Compound 201] | 7.77 | 8.10
11 | COc1ccc(N2C(=O)c3c(Cl)ccc(NS(=O)(=O)c4ccc(C(C)(C)C)cc4)c3C2=O)c(C)n1 [Compound 238] | 7.89 | 7.85
12 | COc1ccc(N2C(=O)c3c(Cl)ccc(NS(=O)(=O)c4ccc(C(C)(C)C)cc4)c3C2=O)nc1C [Compound 260] | 7.66 | 7.80
13 | Cc1ccc(CN2C(=O)c3c(Cl)ccc(NS(=O)(=O)c4ccc(C(C)(C)C)cc4)c3C2=O)nc1 [Compound 251] | 6.83 | 7.29
14 | CC(C)(C)c1ccc(S(=O)(=O)Nc2ccc(Cl)c3c2C(=O)N(c2cccc(C#N)c2)C3=O)cc1 [Compound 120, 4-(tert-butyl)-N-(7-chloro-2-(3-cyanophenyl)-1,3-dioxoisoindolin-4-yl)benzenesulfonamide] | 7.05 | 7.13
15 | O=C1c2c(Cl)ccc(NS(=O)(=O)c3ccc(C(F)(F)F)cc3)c2C(=O)N1c1cccnc1 [Compound 47] | 6.51 | 7.47
16 | CC(Cc1cccnc1)N1C(=O)c2c(Cl)ccc(NS(=O)(=O)c3ccc(C(C)(C)C)cc3)c2C1=O (stereo not shown) [Compound 196] | 6.99 | 7.34
17 | Cc1ccc(CN2C(=O)c3c(Cl)ccc(NS(=O)(=O)c4ccc(C(C)(C)C)cc4)c3C2=O)[n+]([O-])c1 [Compound 259] | 7.35 | 7.89
18 | Cc1cccc(CN2C(=O)c3c(Cl)ccc(NS(=O)(=O)c4ccc(C(C)(C)C)cc4)c3C2=O)n1 [Compound 254] | 7.17 | 7.24
19 | COc1ccc(N2C(=O)c3c(Cl)ccc(NS(=O)(=O)c4ccc(C(C)(C)C)cc4)c3C2=O)c(OC)n1 [Compound 230] | 8.22 | 8.10
20 | CCOc1ccncc1N1C(=O)c2c(Cl)ccc(NS(=O)(=O)c3ccc(C(C)(C)C)cc3)c2C1=O [Compound 271] | 7.46 | 8.05
21 | CC(C)(C)c1ccc(S(=O)(=O)Nc2ccc(Cl)c3c2C(=O)N(Cc2cccnc2)C3=O)cc1 [Compound 64, 4-(tert-butyl)-N-(7-chloro-1,3-dioxo-2-(pyridin-3-ylmethyl)isoindolin-4-yl)benzenesulfonamide] | 7.57 | 7.66
22 | COc1cc(C#N)cc(N2C(=O)c3c(Cl)ccc(NS(=O)(=O)c4ccc(C(C)(C)C)cc4)c3C2=O)c1 [Compound 190] | 7.09 | 7.62
23 | Cc1cnc(C#N)c(N2C(=O)c3c(Cl)ccc(NS(=O)(=O)c4ccc(C(C)(C)C)cc4)c3C2=O)c1 [Compound 256] | 7.74 | 7.74
24 | COc1cccnc1N1C(=O)c2c(Cl)ccc(NS(=O)(=O)c3ccc(C(C)(C)C)cc3)c2C1=O [Compound 202] | 7.31 | 7.66
25 | Cc1cc[n+]([O-])cc1N1C(=O)c2c(Cl)ccc(NS(=O)(=O)c3ccc(C(C)(C)C)cc3)c2C1=O [Compound 188] | 7.05 | 7.82
26 | O=C1c2cccc(NS(=O)(=O)c3ccc(C(F)(F)F)cc3)c2C(=O)N1c1cccnc1 [Compound 6] | 5.25 | 

Continued, values first:

Row | pKi (CCR9 [1]) | pKi (CCR9 [2]) | Structure (SMILES)
27 | 7.03 | 7.44 | CC(C)(C)c1ccc(S(=O)(=O)Nc2ccc(Cl)c3c2C(=O)N(c2cn[nH]c2)C3=O)cc1 [Compound 148, 4-(tert-butyl)-N-(7-chloro-1,3-dioxo-2-(1H-pyrazol-4-yl)isoindolin-4-yl)benzenesulfonamide]
28 | 7.37 | 7.35 | Cn1nnc(N2C(=O)c3c(Cl)ccc(NS(=O)(=O)c4ccc(C(C)(C)C)cc4)c3C2=O)n1 [Compound 234]
29 | 7.64 | 8.52 | Cn1nccc1N1C(=O)c2c(Cl)ccc(NS(=O)(=O)c3ccc(C(C)(C)C)cc3)c2C1=O [Compound 144]
30 | 8.52 | 8.22 | Cc1cnccc1N1C(=O)c2c(Cl)ccc(NS(=O)(=O)c3ccc(C(C)(C)C)cc3)c2C1=O [Compound 244]
31 | 6.76 | 7.66 | COc1cncc(N2C(=O)c3c(Cl)ccc(NS(=O)(=O)c4ccc(C(C)(C)C)cc4)c3C2=O)c1 [Compound 90, 4-(tert-butyl)-N-(7-chloro-2-(5-methoxypyridin-3-yl)-1,3-dioxoisoindolin-4-yl)benzenesulfonamide]
32 | 7.28 | 7.70 | Cc1cc(N2C(=O)c3c(Cl)ccc(NS(=O)(=O)c4ccc(C(C)(C)C)cc4)c3C2=O)c[n+]([O-])c1 [Compound 214]
33 | 8.40 | 8.30 | CC(C)(C)c1ccc(S(=O)(=O)Nc2ccc(Cl)c3c2C(=O)N(c2ccc[nH]c2=O)C3=O)cc1 [Compound 281, 4-(tert-butyl)-N-(7-chloro-1,3-dioxo-2-(2-oxo-1,2-dihydropyridin-3-yl)isoindolin-4-yl)benzenesulfonamide]
34 | 7.25 | 7.74 | COc1cncc(N2C(=O)c3c(Cl)ccc(NS(=O)(=O)c4ccc(C(C)(C)C)cc4)c3C2=O)c1C [Compound 242]
35 | 7.14 | 6.89 | Cn1ccc(N2C(=O)c3c(Cl)ccc(NS(=O)(=O)c4ccc(C(C)(C)C)cc4)c3C2=O)n1 [Compound 145]
36 | 7.38 | 7.92 | Cc1cncc(N2C(=O)c3c(Cl)ccc(NS(=O)(=O)c4ccc(C(C)(C)C)cc4)c3C2=O)n1 [Compound 220]
37 | 7.74 | 7.96 | CC(C)(C)c1ccc(S(=O)(=O)Nc2ccc(Cl)c3c2C(=O)N(c2ccncc2)C3=O)cc1 [Compound 264]
38 | 7.64 | 7.68 | Cc1ccc(N2C(=O)c3c(Cl)ccc(NS(=O)(=O)c4ccc(C(C)(C)C)cc4)c3C2=O)nc1 [Compound 226]
39 |  | 7.11 | COc1ccc(N2C(=O)c3c(Cl)ccc(NS(=O)(=O)c4ccc(C(C)(C)C)cc4)c3C2=O)c[n+]1[O-] [Compound 180]
